We go through 1 compound from patent US8338420B1, “Treatment of Parkinson's disease and enhancement of dopamine signal using PDE 10 inhibitor” (Mitsubishi Tanabe Pharma Corporation, priority 2002, dated 2012).

Broadly, the IC50 is the concentration that gives 50% inhibition. A lower IC50 goes with inhibition by little substance.

The test addresses T1, PDE6 (Bos taurus, UniProt P11541+P23439).
T1 construct: tissue Tokyo Shibaura Zoki; host or cells: bovine retina, rod outer segments, gel filtration, then limited trypsin treatment
T1 sequence (P11541 2-856 limits assumed): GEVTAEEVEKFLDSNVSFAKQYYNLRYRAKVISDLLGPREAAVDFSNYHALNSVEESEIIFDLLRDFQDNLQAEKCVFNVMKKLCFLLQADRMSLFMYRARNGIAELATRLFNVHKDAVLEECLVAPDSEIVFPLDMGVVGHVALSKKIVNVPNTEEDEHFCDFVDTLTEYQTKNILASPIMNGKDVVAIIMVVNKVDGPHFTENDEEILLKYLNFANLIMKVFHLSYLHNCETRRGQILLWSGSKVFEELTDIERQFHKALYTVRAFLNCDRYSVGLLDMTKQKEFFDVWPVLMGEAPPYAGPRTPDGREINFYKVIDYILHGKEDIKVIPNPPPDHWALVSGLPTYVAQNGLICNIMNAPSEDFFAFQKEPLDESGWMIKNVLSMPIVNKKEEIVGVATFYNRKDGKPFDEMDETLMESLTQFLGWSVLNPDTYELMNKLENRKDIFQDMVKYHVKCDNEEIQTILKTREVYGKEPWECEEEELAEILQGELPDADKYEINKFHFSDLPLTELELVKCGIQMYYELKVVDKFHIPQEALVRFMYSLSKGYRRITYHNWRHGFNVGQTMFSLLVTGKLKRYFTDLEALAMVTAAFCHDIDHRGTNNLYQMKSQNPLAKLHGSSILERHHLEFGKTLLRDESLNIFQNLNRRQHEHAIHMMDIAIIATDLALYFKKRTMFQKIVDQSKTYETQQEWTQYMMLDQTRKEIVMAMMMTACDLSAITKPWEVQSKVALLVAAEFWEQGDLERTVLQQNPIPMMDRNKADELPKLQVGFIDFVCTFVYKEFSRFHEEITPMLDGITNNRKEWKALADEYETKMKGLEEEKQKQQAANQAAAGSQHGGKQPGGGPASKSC
T1 sequence (P23439 2-850 limits assumed): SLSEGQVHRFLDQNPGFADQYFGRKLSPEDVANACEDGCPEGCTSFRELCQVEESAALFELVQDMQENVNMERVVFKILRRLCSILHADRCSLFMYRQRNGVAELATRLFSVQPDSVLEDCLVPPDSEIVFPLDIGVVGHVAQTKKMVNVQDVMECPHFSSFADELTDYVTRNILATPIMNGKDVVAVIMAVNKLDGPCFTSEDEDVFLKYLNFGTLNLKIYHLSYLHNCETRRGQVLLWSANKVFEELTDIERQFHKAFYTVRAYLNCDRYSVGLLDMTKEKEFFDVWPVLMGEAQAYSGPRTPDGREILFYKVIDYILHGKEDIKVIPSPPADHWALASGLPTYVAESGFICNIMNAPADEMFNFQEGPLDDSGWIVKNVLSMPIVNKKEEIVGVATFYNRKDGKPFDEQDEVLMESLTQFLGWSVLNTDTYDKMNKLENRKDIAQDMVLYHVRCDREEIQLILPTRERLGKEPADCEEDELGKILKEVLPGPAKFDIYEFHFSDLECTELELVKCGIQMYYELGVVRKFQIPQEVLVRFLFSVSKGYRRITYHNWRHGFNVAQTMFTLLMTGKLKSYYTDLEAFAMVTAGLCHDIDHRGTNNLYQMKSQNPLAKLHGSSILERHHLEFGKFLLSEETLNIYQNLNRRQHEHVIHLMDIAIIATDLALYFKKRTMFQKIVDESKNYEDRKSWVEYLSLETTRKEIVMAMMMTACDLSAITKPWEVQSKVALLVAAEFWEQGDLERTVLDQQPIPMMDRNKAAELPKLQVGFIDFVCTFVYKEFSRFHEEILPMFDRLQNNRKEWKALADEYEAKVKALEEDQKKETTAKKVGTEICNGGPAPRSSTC
The test is described as follows: PDE assay, trypsin-activated PDE6 from bovine retina. Type of test: biochemical. The conditions noted are these: substrate about 12 nM [3H]-cGMP and 10 μM cGMP. The protocol: From the bovine eyeball, purchased from Tokyo Shibaura Zoki, co., Ltd., retina (pale red colored) which is present as a membrane on the pigmented layer was collected and stored at −70° C.
To buffer A [16 mM MOPS-NaOH, pH7.5, 1.6 mM dithiothreitol, 8 mM magnesium chloride, 96 mM potassium chloride, 48 mM sodium chloride, 0.16 mM phenylmethylsulfonyl fluoride, 10 μM pepstatin A, 10 μM leupeptin] (20 ml), sucrose (6 g) was dissolved. Added thereto was the above-mentioned retina (about 7 g), and the mixture was stirred for 30 minutes while cutting the retina by scissors. The mixture was applied to centrifugation at 2000 rpm, at 4° C. for 5 minutes and the supernatant was collected. To the resultant residue was added buffer B[10 mM MOPS, pH7.5, 1 mM dithiothreitol, 5 mM magnesium chloride, 60 mM potassium chloride, 30 mM sodium chloride, 0.1 mM phenylmethylsulfonyl fluoride, 10 μM pepstatin A, 10 μM leupeptin] (40 ml), and the mixture was stirred by rolling several times. This was applied to centrifugation and the resultant supernatant was combined with the above obtained supernatant. This is further centrifuged at 7000 rpm, at 4° C., for 5 minutes, and the precipitates were obtained as crude rod outer segment (ROS). […]
Further, PDE assay was carried out using the above-eluted fractions as an enzyme solution, and cGMP-hydrolyzing activity was measured. […]

As to `COc1ccc(-c2cc(N3CCCC3)nc(/C=C/c3nc(-n4ccnc4)c4ccccc4n3)n2)cc1OC` [Compound A, 2-{(E)-2-[4-(1-imidazolyl)-quinazolin-2-yl]}ethenyl-4-(3,4-dimethoxy)phenyl-6-(pyrrolidin-1-yl)pyrimidine], the IC50 was determined as 290 nM. This counts as sub-micromolar.
